Experiments:
[1] = cancer survivors exposed to >250 mg/m2 doxorubicin vs. non-exposed; cited from earlier work
hESC-CMs = assay: PrestoBlue cell viability analysis of hESC-CMs exposed to doxorubicin; type: cell-based, human; details: for optimal timing of pretreatment prior to doxorubicin: 1, 6, 24, 48, 72 h tested, doxorubicin 1.5 μM for 24 h
Description: Viability of hESC-CMs was assessed using PrestoBlue (Thermo Fisher Scientific, USA). hESC-CMs in suspension were seeded at a density of 15,000 cells per well on 96-well flat-bottom microtiter plates and cultured at 37° C. in a humidified 5% CO2 atmosphere. The B27+/RPMI-1640 media with Y27632 were changed to B27+/RPMI−1640 media within 24 hours. Cells were then incubated in B27+/RPMI−1640 without supplement for at least 72 hours. PrestoBlue was diluted in a ratio of 1:10 in B27+/RPMI−1640 media and incubated with the cells at 37° C. for 30 minutes. After incubation, fluorescence reading was performed at excitation and emission wavelengths of 530 nm and 590 nm, respectively, using the Synergy HTX Multi-Mode microplate reader (Agilent Technologies, Inc., USA).
Six logarithmic concentrations of GDF15 were initially used to identify the optimal dose for cytoprotection: 0.1 ng/ml, 1 ng/ml, 10 ng/ml, 100 ng/ml, 1,000 ng/ml (1 ug/ml), and 10,000 ng/ml (10 ug/ml). Further refinement of dose response was subsequently achieved using concentrations at 100 ng/ml, 200 ng/ml, and 300 ng/ml. The optimal time point (see below) of 24 hours was selected. Doxorubicin at 1.5 μM was used to induce cytotoxicity.
hESC-CMs were pretreated with GDF15 for 1 hour, 6 hours, 24 hours, 48 hours, or 72 hours (“pretreatment”), followed by exposure to 1.5 μM doxorubicin alone for a further 24 hours. A second set of experiments involved pretreatment of hESC-CMs for 1 hour, 6 hours, 24 hours, 48 hours, or 72 hours, followed by removal of the media containing GDF15, and coincubation of hESC-CMs with both GDF15 and doxorubicin for another 24h (“pre/co-treatment”). The efficacy of GDF15 in protecting cardiomyocytes was assessed by cell viability analysis using PrestoBlue.

Row | Molecule | hazard ratio for developing heart failure [1] | cytoprotective effects after priming, pre/co-treatment (hESC-CMs; hESC-CMs primed with GDF15 for 24 hours, then coincubation with GDF15 and doxorubicin 24 h) | optimal timing of pretreatment prior to doxorubicin (hESC-CMs; hESC-CMs) [h] | optimal timing of pretreatment prior to doxorubicin (hESC-CMs; hESC-CMs, listed as recombinant GDF15) | cell viability (positive PrestoBlue staining) (hESC-CMs; hESC-CMs, GDF15 pretreatment for 24 hours before doxorubicin 1.5 μM) | cell viability compared with dexrazoxane (hESC-CMs; hESC-CMs, pretreatment in the presence of Dox)
1 | COc1cccc2c1C(=O)c1c(O)c3c(c(O)c1C2=O)C[C@@](O)(C(=O)CO)C[C@@H]3OC1C[C@H](N)[C@H](O)[C@H](C)O1.Cl (stereo partly drawn) [Dox, (8S,10S)-10-[(3-Amino-2,3,6-trideoxy-L-lyxohexopyranosyl)oxy]-7,8,9,10-tetrahydro-6,8,11-trihydroxy-8-(hydroxyacetyl)-1-methoxynaphthacene-5,12-dione hydrochloride, reference compound] | 8.6 |  |  |  |  | 
2 | GDF15: commercially available recombinant human GDF-15 protein (PeproTech 120-28C), CHO cell-derived, SEQ ID NO: 1 |  | cytoprotective effects persisted | 24 | approximately 24 hours | increased cell viability | slightly higher percentage of cell viability

From patent US12209112B2, “Methods of preventing or treating diseases, conditions, or disorders associated with chemotherapy” (The Chinese University of Hong Kong, priority 2022, dated 2025)
